According to paper PMC8044163, “Vitamin D and lumisterol derivatives can act on liver X receptors (LXRs)” (Scientific Reports, 2021):
Like-named read-outs stand apart in the source and are kept apart here.

Experiments:
ABCA1 = assay: qPCR of ABCA1 in HaCaT keratinocytes; format: cell-based, human; details: 10^–7 M
Procedure: HaCaT keratinocytes were cultured as described previously. For RNA isolation the cells were maintained in TPP tissue culture petri dishes (Ø60 mm, 22.1 cm^2) in DMEM containing 10% cFBC to reach semi-confluence and then exposed to 10^–7 M compounds or a corresponding concentration of ethanol solvent.
(§1) RNA isolated from either fibroblasts, HaCaT cells or brain was submitted for cDNA synthesis (High Capacity cDNA Reverse Transcription Kit with RNase Inhibitor, Applied Biosystems) following the manufacturers’ protocols. RT-PCR was carried out using Cyber green, in triplicates; as previously described. Approximately, 750 ng of cDNA was used for PCR reactions. GAPDH and CIC-B were used as internal controls. Primer sequences are listed in Supplementary Table 27. Data were analyzed using GraphPad Prism statistical software one way ANOVA or t-test, where appropriate; *p < 0.05; **p < 0.01; ***p < 0.001.

brains of SKH-1 mice = assay: LXR-dependent gene expression in brain of mice after subcutaneous injection; format: in vivo, mouse; details: 6 h, SKH-1-M mice
Procedure: Adult hairless mice SKH-1 (Male, 16 weeks old) and Ptch^+/−/SKH-1 (Male, 18 weeks old) were injected subcutaneously with 20 µg and 10 µg/kg of 20(OH)D3, respectively, dissolved in ethanol, further diluted in propylene glycol (PG) and saline (0.9%) sequentially (1:19:80, v/v/v). Controls were injected with the vehicle without the drug. )After 6 h the animals were killed by halothane followed by cervical dislocation and brains were collected for RNA and protein extraction protocols. The procedures followed the guidelines and approvals of the Institute Animal Care and Use Committee of the University of Alabama at Birmingham (IACUC).
as §1

LXRα = target: T1, LXRα (Homo sapiens, UniProt Q13133); assay: Ligand induced translocation of LXRα to the nucleus, immunofluorescence in HaCaT; format: cell-based; details: 10^−7 M, 24 h
T1 construct: endogenous in cells; host or cells: HaCaT keratinocytes
T1 sequence (Q13133 1-447): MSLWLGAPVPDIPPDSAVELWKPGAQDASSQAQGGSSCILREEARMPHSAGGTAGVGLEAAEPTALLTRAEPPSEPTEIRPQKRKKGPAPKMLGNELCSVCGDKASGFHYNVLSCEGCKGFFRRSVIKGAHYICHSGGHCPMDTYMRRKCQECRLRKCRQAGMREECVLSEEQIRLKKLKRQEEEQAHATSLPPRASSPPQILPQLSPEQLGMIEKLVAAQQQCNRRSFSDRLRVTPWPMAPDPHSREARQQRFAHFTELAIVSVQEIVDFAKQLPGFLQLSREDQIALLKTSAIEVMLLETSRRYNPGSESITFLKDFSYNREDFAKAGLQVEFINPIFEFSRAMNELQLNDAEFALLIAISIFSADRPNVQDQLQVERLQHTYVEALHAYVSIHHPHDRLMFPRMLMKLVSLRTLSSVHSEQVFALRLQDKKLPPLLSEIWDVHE
Procedure: HaCaT cells were plated in DMEM plus 5% cFBS either on a sterile glass cover slip placed in a well of a 6-well plates for immunofluorescence (IF) assays or TPP Petri dishes for image-stream flow cytometry, and treated with 10^–7 M D3- or L3-hydroxyderivatives or 0.1% ethanol (vehicle) as a negative control was added to each well, and the cells were incubated for 12 or 24 h at 37 °C with 5% CO2. For IF the cells were fixed in 4% paraformaldehyde for 15 min, incubated in 0.5% Triton X-100 in phosphate-buffered saline (PBS) for 5 min, and washed 3 times in PBS. After blocking with 2% bovine serum albumin (BSA) in PBS for 1 h at room temperature, the cells were treated with an anti-LXRα antibody (Novus Biologicals, LLC, Centennial, CO) at 1:200 in PBS supplemented with 2% BSA overnight in 4 °C. After washing the slides were incubated with a mouse anti-rabbit IgG-FITC (Santa Cruz Biotechnology, Inc, Dallas, TX) at 1:200 dilution for 1.5 h at 37 °C. After washing the slides were mounted using propidium iodide (PI) (Vector Labs, Burlingame, California) as a nuclear counterstain. The slides were examined using a KEYENCE America BZ-X710 Fluorescence Microscope (Itasca, IL). The images were subsequently analyzed using the JACoP plugin for colocalization analysis with ImageJ[74]. Five separate high-power field (40×) images were converted to grayscale and analyzed for each condition. Manders’ coefficient (M1), calculated using a preset threshold, was used to quantify the degree of colocalization between PI and LXRα with 0 representing no colocalization, and 1 representing perfect colocalization.

VDR = target: T2, VDR (Homo sapiens, UniProt P11473); assay: Translocation of VDR to the nucleus, imaging flow cytometry in HaCaT; format: cell-based; details: 10^–7 M, 12 h
T2 construct: endogenous in cells; host or cells: HaCaT keratinocytes
T2 sequence (P11473 1-427): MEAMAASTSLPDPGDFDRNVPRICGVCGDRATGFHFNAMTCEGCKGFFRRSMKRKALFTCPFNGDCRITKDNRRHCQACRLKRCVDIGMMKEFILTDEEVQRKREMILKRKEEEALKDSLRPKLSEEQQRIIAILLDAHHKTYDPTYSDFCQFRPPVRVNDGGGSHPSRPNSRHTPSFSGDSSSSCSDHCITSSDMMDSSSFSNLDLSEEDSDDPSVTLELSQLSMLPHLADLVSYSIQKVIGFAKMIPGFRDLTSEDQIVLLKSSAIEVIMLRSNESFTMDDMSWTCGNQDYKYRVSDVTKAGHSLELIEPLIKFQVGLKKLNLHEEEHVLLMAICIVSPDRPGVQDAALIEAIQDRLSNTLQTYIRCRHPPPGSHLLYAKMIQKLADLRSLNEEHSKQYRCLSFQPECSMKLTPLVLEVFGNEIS

ABCA1 gene = details: HaCaT cells, 10^–7 M, microarray GSE117351 ref 44, cited from earlier work
[1] = tested on: LXR-response element (LXRE)-driven reporter in CHO cells; assay: LXRE-driven luciferase reporter assay in CHO cells; format: cell-based; details: 10^–7 M, CHO and HaCaT cells (Fig. 4C)
Procedure: The effects of vitamin D3 and L3 hydroxyderivatives were tested on the LXRE transcriptional activity using pGreenFire1-LXRE-in-ApoE Lentivirus (System Biosciences, Palo Alto, CA). This plasmid was transduced in CHO and HaCaT cells following the manufacture’s protocol and the cells used as a stable LXRE expressed tool. Briefly, the virus was transduced into the cells using TransDux MAX Lentivirus Transduction Enhancer (System Biosciences, Palo Alto, CA) and screened to select the transduced cells using puromycin. The transduced cells were treated with the compounds for 24 h in media containing 5% cFBS (charcoal-treated fetal bovine serum) and the luminescence was read by ONE-Glo Luciferase Assay System (Promega, Madison, WI) using Cytation 5 (BioTek, Winooski, VT).

Row | Structure (SMILES) | ABCA1 RNA expression (qPCR) (ABCA1) | LXR-dependent gene expression in brain (brains of SKH-1 mice; 10 µg/kg) | LXR-dependent gene expression in brain (brains of SKH-1 mice; 20 µg/kg) | translocation of LXRα to the nucleus (immunofluorescence, Manders' coefficient) (LXRα) | translocation of VDR from the cytoplasm to the nucleus (VDR) | ABCA1 expression, stimulation (ABCA1 gene; 6 h) [times] | ABCA1 expression, stimulation (ABCA1 gene; 24 h) [fold] | LXRE luciferase (transcriptional) activity [1]
1 | C=C1CC[C@H](O)C/C1=C/C=C1\CCC[C@@]2(C)[C@H]1CC[C@@H]2[C@@](C)(O)CCCC(C)C [20(OH)D3] | stimulation | stimulated expression of Abca1, Abcg1, Abcg5, ApoE, Fas and Cyp7a1 | stimulated expression of Lpl, Abca1, ApoE and Cyp7a1 | induced translocation | increased translocation |  |  | 
2 | C=C1CCC(O)CC1=CC=C1CCCC2(C)C1CCC2C(C)(O)CC(O)CC(C)C (centres unmarked) [20,23(OH)2D3] |  |  |  |  |  | 2.8 | 2.3 | 
3 | C=C1C(=CC=C2CCCC3(C)C2CCC3C(C)(O)CC(O)CC(C)C)CC(O)CC1O (centres unmarked) [1,20,23(OH)3D3] |  |  |  |  | increased translocation |  |  | strongest stimulatory effects
4 | C=C1/C(=C\C=C2/CCC[C@]3(C)[C@@H]([C@H](C)CCCC(C)(C)O)CC[C@@H]23)C[C@@H](O)C[C@@H]1O [1,25(OH)2D3, reference compound] | stimulation |  |  | induced translocation |  | 2.4 | 2.4 | strongest stimulatory effects
